From patent US8247211B2, “Glycopeptide antibiotics” (American Cyanamid Company, priority 2001, dated 2012)
Values after ≈ are worked out from the molar mass of the structure shown.

How the values were obtained:
Assay in all cases: In vitro antibacterial evaluation: minimum inhibitory concentration (MIC), broth dilution method
Type in all cases: cell-based
Enterococcus sp. = settings: 18 hours at 35° C.
Outline: (§1)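 First, organisms are seeded at 5×10^5 CFU/mL into Muller-Hinton II […]. Next, antibiotic is applied across 64-0.06 μg/mL by broth dilution (NCCLS M7-A2). Finally, the lowest inhibitory concentration is recorded as MIC.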

Escherichia coli = settings: 18 hours at 35° C.
Outline: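 Inoculum: 5×10^5 CFU/mL. Range: 64-0.06 μg/mL. Medium: Muller-Hinton II […]; NCCLS M7-A2 broth dilution. Endpoint: lowest concentration inhibiting growth. Strains include methicillin-, penicillin- and/or vancomycin-resistant clinical isolates.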

Staphylococcus sp. = settings: for MIC Staphylococcus aureus (ATCC 29213): strain ATCC 29213; for MIC Staphylococcus aureus (GC 1131): strain GC 1131; for MIC Staphylococcus aureus (GC 4541): strain GC 4541; for MIC Staphylococcus aureus (GC 4542): strain GC 4542; for MIC Staphylococcus aureus-SMITH (GC 4543): strain GC 4543; for MIC Staphylococcus aureus (GC 4544): strain GC 4544; for MIC Staphylococcus aureus (GC 4545): strain GC 4545; for MIC Staphylococcus haemolyticus (GC 4546): strain GC 4546; for MIC Coagulase Negative Staphylococcus (GC 4547): strain GC 4547; for MIC Coagulase Negative Staphylococcus (GC 4548): strain GC 4548; for MIC Coagulase Negative Staphylococcus (GC 4549): strain GC 4549; for MIC Coagulase Negative Staphylococcus (GC 4551): strain GC 4551; for MIC Coagulase Negative Staphylococcus (ID-3941): strain ID-3941
Outline: as §1

Streptococcus sp. = settings: 18 hours at 35° C.
Outline: as §1

[1] = broth dilution, inoculum 5×10^5 CFU/mL
[2] = broth dilution, 18 hours at 35° C.

## CCCCN1CC(C(O)C2NC(=O)C(C(O)C3CNC(=N)N3)NC(=O)C(Cc3ccc(OC4OC(CO)C(OC5OC6COC7(OC6C(O)C5O)C5CC6CC(C5)CC7C6)C(O)C4O)cc3)NC(=O)C(C(C)c3ccccc3)NC(=O)CNC(=O)C(CO)NC2=O)N(C2OC(CO)C(O)C(O)C2O)C1=N (stereo not drawn) [Example 224, Cyclo[glycyl-β-methylphenylalanyl-O-[4-O-[4,6-O-(2-adamantylidene)hexopyranosyl]hexopyranosyl]tyrosyl-3-(2-iminoimidazolidin-4-yl)seryl-3-(1-butyl-3-hexopyranosyl-2-iminoimidazolidin-4-yl)serylseryl]]
Enterococcus sp.; Enterococcus avium (GC 4558)
  MIC Enterococcus avium (GC 4558): 2 µg/mL (≈ 1.35 µM)
Enterococcus sp.; Enterococcus faecalis (ATCC 29212)
  MIC Enterococcus faecalis (ATCC 29212): 4 µg/mL (≈ 2.7 µM)
Enterococcus sp.; Enterococcus faecalis (GC 2242)
  MIC Enterococcus faecalis (GC 2242): 4 µg/mL (≈ 2.7 µM)
Enterococcus sp.; Enterococcus faecalis (GC 2691)
  MIC Enterococcus faecalis (GC 2691): 4 µg/mL (≈ 2.7 µM)
Enterococcus sp.; Enterococcus faecalis (GC 3059)
  MIC Enterococcus faecalis (GC 3059): 4 µg/mL (≈ 2.7 µM)
Enterococcus sp.; Enterococcus faecalis (GC 4552)
  MIC Enterococcus faecalis (GC 4552): 4 µg/mL (≈ 2.7 µM)
Enterococcus sp.; Enterococcus faecalis (GC 4553)
  MIC Enterococcus faecalis (GC 4553): 2 µg/mL (≈ 1.35 µM)
Enterococcus sp.; Enterococcus faecalis (GC 4554)
  MIC Enterococcus faecalis (GC 4554): 4 µg/mL (≈ 2.7 µM)
Enterococcus sp.; Enterococcus faecalis (GC 6189)
  MIC Enterococcus faecalis (GC 6189): 4 µg/mL (≈ 2.7 µM)
Enterococcus sp.; Enterococcus faecium (GC 2243)
  MIC Enterococcus faecium (GC 2243): 2 µg/mL (≈ 1.35 µM)
Enterococcus sp.; Enterococcus faecium (GC 4556)
  MIC Enterococcus faecium (GC 4556): 4 µg/mL (≈ 2.7 µM)
Enterococcus sp.; Enterococcus faecium (GC 4557)
  MIC Enterococcus faecium (GC 4557): 0.5 µg/mL (≈ 0.337 µM)
Enterococcus sp.; [1]
  MIC Enterococcus avium (GC 4558): 2 µg/mL (≈ 1.35 µM)
  MIC Enterococcus faecalis (ATCC 29212): 4 µg/mL (≈ 2.7 µM)
  MIC Enterococcus faecalis (GC 2242): 4 µg/mL (≈ 2.7 µM)
  MIC Enterococcus faecalis (GC 2691): 4 µg/mL (≈ 2.7 µM)
  MIC Enterococcus faecalis (GC 3059): 4 µg/mL (≈ 2.7 µM)
  MIC Enterococcus faecalis (GC 4552): 4 µg/mL (≈ 2.7 µM)
  MIC Enterococcus faecalis (GC 4553): 2 µg/mL (≈ 1.35 µM)
  MIC Enterococcus faecalis (GC 4554): 4 µg/mL (≈ 2.7 µM)
  MIC Enterococcus faecalis (GC 6189): 4 µg/mL (≈ 2.7 µM)
  MIC Enterococcus faecium (GC 2243): 2 µg/mL (≈ 1.35 µM)
  MIC Enterococcus faecium (GC 4556): 4 µg/mL (≈ 2.7 µM)
  MIC Enterococcus faecium (GC 4557): 0.5 µg/mL (≈ 0.337 µM)
Escherichia coli; Escherichia coli (GC 4559)
  MIC Escherichia coli (GC 4559): 64 µg/mL (≈ 43.1 µM)
Escherichia coli; Escherichia coli (GC 4560)
  MIC Escherichia coli (GC 4560): 2 µg/mL (≈ 1.35 µM)
Staphylococcus sp.
  MIC Staphylococcus aureus (ATCC 29213): 2 µg/mL (≈ 1.35 µM)
  MIC Staphylococcus aureus (GC 1131): 4 µg/mL (≈ 2.7 µM)
  MIC Staphylococcus aureus (GC 4541): 1 µg/mL (≈ 0.674 µM)
  MIC Staphylococcus aureus (GC 4542): 4 µg/mL (≈ 2.7 µM)
  MIC Staphylococcus aureus-SMITH (GC 4543): 2 µg/mL (≈ 1.35 µM)
  MIC Staphylococcus aureus (GC 4544): 4 µg/mL (≈ 2.7 µM)
  MIC Staphylococcus aureus (GC 4545): 2 µg/mL (≈ 1.35 µM)
  MIC Staphylococcus haemolyticus (GC 4546): 1 µg/mL (≈ 0.674 µM)
  MIC Coagulase Negative Staphylococcus (GC 4547): 2 µg/mL (≈ 1.35 µM)
  MIC Coagulase Negative Staphylococcus (GC 4548): 1 µg/mL (≈ 0.674 µM)
  MIC Coagulase Negative Staphylococcus (GC 4549): 1 µg/mL (≈ 0.674 µM)
  MIC Coagulase Negative Staphylococcus (GC 4551): 2 µg/mL (≈ 1.35 µM)
Staphylococcus sp.; strain GC 3051
  MIC Staphylococcus aureus (GC 3051): 2 µg/mL (≈ 1.35 µM)
Staphylococcus sp.; strain GC 3053
  MIC Staphylococcus aureus (GC 3053): 4 µg/mL (≈ 2.7 µM)
Streptococcus sp.; Streptococcus agalactiae (GC 4564)
  MIC Streptococcus agalactiae (GC 4564): <0.12 µg/mL
Streptococcus sp.; Streptococcus pneumoniae (ATCC 6301)
  MIC Streptococcus pneumoniae (ATCC 6301): 0.25 µg/mL (≈ 0.169 µM)
Streptococcus sp.; Streptococcus pneumoniae (GC 1894)
  MIC Streptococcus pneumoniae (GC 1894): <0.12 µg/mL
Streptococcus sp.; Streptococcus pneumoniae (GC 4565)
  MIC Streptococcus pneumoniae (GC 4565): 0.25 µg/mL (≈ 0.169 µM)
Streptococcus sp.; Streptococcus pyogenes (GC 4563)
  MIC Streptococcus pyogenes (GC 4563): 0.25 µg/mL (≈ 0.169 µM)
Streptococcus sp.; [1]
  MIC Streptococcus agalactiae (GC 4564): <0.12 µg/mL
  MIC Streptococcus pneumoniae (ATCC 6301): 0.25 µg/mL (≈ 0.169 µM)
  MIC Streptococcus pneumoniae (GC 1894): <0.12 µg/mL
  MIC Streptococcus pneumoniae (GC 4565): 0.25 µg/mL (≈ 0.169 µM)
  MIC Streptococcus pyogenes (GC 4563): 0.25 µg/mL (≈ 0.169 µM)

## CC(c1ccccc1)C1NC(=O)CNC(=O)C(CO)NC(=O)C(C(O)C2CNC(=N)N2C2OC(CO)C(O)C(O)C2O)NC(=O)C(C(O)C2CNC(=N)N2)NC(=O)C(Cc2ccc(OC3OC(CO)C(OC4OC5COC(CC(C)(C)C)OC5C(O)C4O)C(O)C3O)cc2)NC1=O (centres unmarked) [Example 110]
Enterococcus sp.; broth dilution, 5×10^5 CFU/mL
  MIC Enterococccus avium (GC 4558): 4 µg/mL (≈ 2.9 µM)
  MIC Enterococccus faecalis (ATCC 29212): 4 µg/mL (≈ 2.9 µM)
  MIC Enterococccus faecalis (GC 4552): 4 µg/mL (≈ 2.9 µM)
  MIC Enterococccus faecalis (GC 4553): 4 µg/mL (≈ 2.9 µM)
  MIC Enterococccus faecalis (GC 4554): 2 µg/mL (≈ 1.45 µM)
  MIC Enterococccus faecium (GC 2243): 4 µg/mL (≈ 2.9 µM)
  MIC Enterococccus faecium (GC 4556): 2 µg/mL (≈ 1.45 µM)
  MIC Enterococccus faecium (GC 4557): 2 µg/mL (≈ 1.45 µM)
  MIC Enterococcus faecalis (GC 2242): 2 µg/mL (≈ 1.45 µM)
Escherichia coli; 5×10^5 CFU/mL
  MIC Escherichia coli (ATCC 25922): 64 µg/mL (≈ 46.5 µM)
Staphylococcus sp.
  MIC Staphylococcus aureus (ATCC 29213): 1 µg/mL (≈ 0.726 µM)
  MIC Staphylococcus aureus (GC 1131): 1 µg/mL (≈ 0.726 µM)
  MIC Staphylococcus aureus (GC 4541): 1 µg/mL (≈ 0.726 µM)
  MIC Staphylococcus aureus (GC 4542): 1 µg/mL (≈ 0.726 µM)
  MIC Staphylococcus aureus (GC 4544): 2 µg/mL (≈ 1.45 µM)
  MIC Staphylococcus aureus (GC 4545): 1 µg/mL (≈ 0.726 µM)
  MIC Staphylococcus haemolyticus (GC 4546): 1 µg/mL (≈ 0.726 µM)
  MIC Coagulase Negative Staphylococcus (GC 4547): 1 µg/mL (≈ 0.726 µM)
  MIC Coagulase Negative Staphylococcus (GC 4548): 1 µg/mL (≈ 0.726 µM)
  MIC Coagulase Negative Staphylococcus (GC 4549): 1 µg/mL (≈ 0.726 µM)
  MIC Coagulase Negative Staphylococcus (GC 4551): 1 µg/mL (≈ 0.726 µM)
  MIC Coagulase Negative Staphylococcus (ID-3941): 1 µg/mL (≈ 0.726 µM)
Staphylococcus sp.; [2]
  MIC Staphylococcus aureus (ATCC 29213): 1 µg/mL (≈ 0.726 µM)
  MIC Staphylococcus aureus (GC 1131): 1 µg/mL (≈ 0.726 µM)
  MIC Staphylococcus aureus (GC 4541): 1 µg/mL (≈ 0.726 µM)
  MIC Staphylococcus aureus (GC 4542): 1 µg/mL (≈ 0.726 µM)
  MIC Staphylococcus aureus-SMITH (GC 4543): 1 µg/mL (≈ 0.726 µM)
  MIC Staphylococcus aureus (GC 4544): 2 µg/mL (≈ 1.45 µM)
  MIC Staphylococcus aureus (GC 4545): 1 µg/mL (≈ 0.726 µM)
  MIC Staphylococcus haemolyticus (GC 4546): 1 µg/mL (≈ 0.726 µM)
  MIC Coagulase Negative Staphylococcus (GC 4547): 1 µg/mL (≈ 0.726 µM)
  MIC Coagulase Negative Staphylococcus (GC 4548): 1 µg/mL (≈ 0.726 µM)
  MIC Coagulase Negative Staphylococcus (GC 4549): 1 µg/mL (≈ 0.726 µM)
  MIC Coagulase Negative Staphylococcus (GC 4551): 1 µg/mL (≈ 0.726 µM)
  MIC Coagulase Negative Staphylococcus (ID-3941): 1 µg/mL (≈ 0.726 µM)
Staphylococcus sp.; 18 hours at 35° C.
  MIC Staphylococcus aureus-SMITH (GC 4543): 1 µg/mL (≈ 0.726 µM)
Streptococcus sp.; broth dilution, 5×10^5 CFU/mL
  MIC Streptococcus agalactiae (GC 4564): <0.5 µg/mL
  MIC Streptococcus pneumoniae (GC 4565): <0.5 µg/mL
  MIC Streptococcus pyogenes (ID-3187): <0.5 µg/mL
